Molecular target: T1, Aldehyde oxidase 1 (Oryctolagus cuniculus, UniProt P80456)
T1 sequence (P80456 whole entry): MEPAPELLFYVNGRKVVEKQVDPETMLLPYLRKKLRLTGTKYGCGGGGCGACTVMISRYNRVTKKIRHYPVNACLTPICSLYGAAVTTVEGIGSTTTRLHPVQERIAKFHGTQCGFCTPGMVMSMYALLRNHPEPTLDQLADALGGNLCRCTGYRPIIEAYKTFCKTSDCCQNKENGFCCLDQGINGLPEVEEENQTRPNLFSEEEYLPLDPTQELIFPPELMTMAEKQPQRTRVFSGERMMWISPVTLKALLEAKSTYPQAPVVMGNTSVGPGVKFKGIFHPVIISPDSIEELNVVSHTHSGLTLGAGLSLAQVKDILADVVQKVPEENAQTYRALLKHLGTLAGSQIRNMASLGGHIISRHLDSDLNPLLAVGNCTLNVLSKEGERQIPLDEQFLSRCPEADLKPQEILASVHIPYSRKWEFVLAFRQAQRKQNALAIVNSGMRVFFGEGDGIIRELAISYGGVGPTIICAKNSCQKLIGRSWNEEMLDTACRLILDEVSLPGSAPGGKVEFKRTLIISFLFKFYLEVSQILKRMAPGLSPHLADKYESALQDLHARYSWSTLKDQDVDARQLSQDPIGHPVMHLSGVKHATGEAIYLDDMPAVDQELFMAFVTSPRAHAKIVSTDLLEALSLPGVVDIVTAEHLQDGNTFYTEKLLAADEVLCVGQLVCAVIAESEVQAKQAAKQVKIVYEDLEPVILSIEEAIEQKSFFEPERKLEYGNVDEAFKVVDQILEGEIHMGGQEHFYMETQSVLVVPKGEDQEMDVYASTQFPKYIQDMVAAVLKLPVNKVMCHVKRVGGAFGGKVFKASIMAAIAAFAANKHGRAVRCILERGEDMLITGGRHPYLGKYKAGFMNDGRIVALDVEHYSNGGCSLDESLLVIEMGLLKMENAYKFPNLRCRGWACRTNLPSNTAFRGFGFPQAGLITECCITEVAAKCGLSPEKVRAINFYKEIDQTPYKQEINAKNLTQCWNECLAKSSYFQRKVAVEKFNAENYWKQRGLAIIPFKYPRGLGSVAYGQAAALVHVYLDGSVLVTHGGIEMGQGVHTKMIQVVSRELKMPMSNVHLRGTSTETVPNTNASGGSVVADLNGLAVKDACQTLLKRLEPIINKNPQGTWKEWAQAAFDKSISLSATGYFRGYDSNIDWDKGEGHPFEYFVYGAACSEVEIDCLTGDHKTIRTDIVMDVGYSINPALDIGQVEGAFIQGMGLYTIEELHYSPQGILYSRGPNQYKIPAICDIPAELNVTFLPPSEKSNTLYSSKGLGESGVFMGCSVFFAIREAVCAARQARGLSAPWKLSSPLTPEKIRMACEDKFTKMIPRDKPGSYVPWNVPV
Assay: Inhibition of rabbit aldehyde oxidase

C[C@]12CC[C@@H]3c4ccc(O)cc4CC[C@H]3[C@@H]1CC[C@@H]2O [ESTRADIOL]
IC50: 40 µM
